Test results published in patent US20220088127A1, “TARGETING THE BAG FAMILY FOR THE TREATMENT OF NEURODEGENERATIVE DISEASE” (Temple University - of the Commonwealth System of Higher …, priority 2019, published 2022).
Peptide text beside a SMILES is read from it. * marks the point of attachment. Cbz = O=C(OCc1ccccc1)*

System: BAG3
Assay: BAG3 protein level by Western blot
Assay type: cell-based, rat
Protocol: Dissociated cell cultures of hippocampal and cortical neurons were prepared using dissected E18 prenatal rat embryonic brains. After digestion in 0.25% trypsin solution, neurons were plated on tissue culture plates and slides pre-coated with poly-D-lysine (Sigma, St. Louis, Mo.) and laminin (Invitrogen 23017, USA). Cells were maintained 14 days prior to treatments. Neurons were transduced with Ad-Null (Vector Biolabs, Malvern, Pa.), Ad-Tat (made in-house), Ad-siBAG3 (Vector Biolabs, Malvern, Pa.) and Ad-BAG3 (Vector Biolabs, Malvern, Pa.) with MOI 1 to 4 or recombinant Tat protein (50 ng/ml, full length, 101 amino acids, Immunodiagnostics, MA). Tat bioactivity was verified by the LTR-luciferase assay. MG132 (5 μM) and Bafilomycin A 1 (50 nM, Sigma) were applied for 4 h prior to lysis to block proteasome and lysosomal autophagy, respectively.
Neuronal and mouse brain tissue lysates were prepared using RIPA lysis buffer (whole cell extract), Tris-Triton (soluble fraction) or 2% SDS in PBS (insoluble fraction), all containing protease inhibitor cocktail (Sigma-Aldrich, St. Louis, Mo.). Protein concentration was measured using Bio-Rad protein assay reagent (Bio-Rad, Hercules, Calif.). SDS-polyacrylamide gels, 10-12%, and nitrocellulose membranes (LI-COR, Inc., Lincoln, Nebr.) were used for electrophoretic protein separation and transfer, respectively. […]

Row | SMILES | BAG3 levels in Tat-expressing neurons under proteasome inhibition (MG132 for 4 h on day 3 post-transduction) | BAG3 levels in Tat-expressing neurons under lysosomal inhibition (Bafilomycin A1)
1 | CC(C)C[C@@H](C=O)NC(=O)[C@H](CC(C)C)NC(=O)[C@H](CC(C)C)NC(=O)OCc1ccccc1 [MG132] (Cbz-Leu-Leu-Leu-aldehyde) | not altered | 
2 | CO/C1=C\C(C)=C\[C@@H](C)[C@@H](O)[C@@H](C)C/C(C)=C/C=C/[C@H](OC)[C@@H]([C@@H](C)[C@@H](O)[C@H](C)[C@@]2(O)C[C@@H](O)[C@H](C)[C@@H](C(C)C)O2)OC1=O [Baf A1, Bafilomycin A1] |  | no significant changes
